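Growth conditions: 96-well plates. Treatment: test compound, 48 hours, 5 concentrations. Analysis: linear interpolation between bracketing concentrations; unreached endpoints set to highest concentration. At the TGI there is no net growth.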
Key:
Assay in all cases: NCI anticancer screen, dose series, 48 h
SF-268 CNS = tested on: SF-268 CNS
SW-620 colon = tested on: SW-620 colon
DMS 114 small cell lung = tested on: DMS 114 small cell lung
SK-MEL-2 melanoma = tested on: SK-MEL-2 melanoma
IGROV1 ovarian = tested on: IGROV1 ovarian
OVCAR-3 ovarian = tested on: OVCAR-3 ovarian
TK-10 renal = tested on: TK-10 renal
LXFL 529 NSCLC = tested on: LXFL 529 NSCLC
UO-31 renal = tested on: UO-31 renal
SNB-19 CNS = tested on: SNB-19 CNS
HCC-2998 colon = tested on: HCC-2998 colon
SF-539 CNS = tested on: SF-539 CNS
HT29 colon = tested on: HT29 colon
NCI-H460 lung = tested on: NCI-H460 lung
A549 NSCLC = tested on: A549 NSCLC
HOP-62 NSCLC = tested on: HOP-62 NSCLC
MOLT-4 leukemia = tested on: MOLT-4 leukemia
CCRF-CEM leukemia = tested on: CCRF-CEM leukemia
M14 melanoma = tested on: M14 melanoma
KM12 colon = tested on: KM12 colon
NCI-H23 lung = tested on: NCI-H23 lung
RXF 393 renal = tested on: RXF 393 renal
OVCAR-8 ovarian = tested on: OVCAR-8 ovarian
KM20L2 colon = tested on: KM20L2 colon
NCI-H226 lung = tested on: NCI-H226 lung
UACC-257 melanoma = tested on: UACC-257 melanoma
CAKI-1 renal = tested on: CAKI-1 renal
HL-60(TB) leukemia = tested on: HL-60(TB) leukemia
SNB-75 CNS = tested on: SNB-75 CNS
EKVX NSCLC = tested on: EKVX NSCLC
M19-MEL melanoma = tested on: M19-MEL melanoma
RPMI-8226 leukemia = tested on: RPMI-8226 leukemia
COLO 205 colon = tested on: COLO 205 colon
HOP-92 NSCLC = tested on: HOP-92 NSCLC
SF-295 CNS = tested on: SF-295 CNS
ACHN renal = tested on: ACHN renal
UACC-62 melanoma = tested on: UACC-62 melanoma
HCT-116 colon = tested on: HCT-116 colon
SK-MEL-5 melanoma = tested on: SK-MEL-5 melanoma
SK-MEL-28 melanoma = tested on: SK-MEL-28 melanoma
MALME-3M melanoma = tested on: MALME-3M melanoma
OVCAR-4 ovarian = tested on: OVCAR-4 ovarian
786-0 renal = tested on: 786-0 renal
DLD-1 colon = tested on: DLD-1 colon
A498 renal = tested on: A498 renal
SN12C renal = tested on: SN12C renal
NCI-H522 lung = tested on: NCI-H522 lung
HOP-18 NSCLC = tested on: HOP-18 NSCLC
SK-OV-3 ovarian = tested on: SK-OV-3 ovarian
K-562 leukemia = tested on: K-562 leukemia
DMS 273 small cell lung = tested on: DMS 273 small cell lung
SNB-78 CNS = tested on: SNB-78 CNS
U251 CNS = tested on: U251 CNS
SR leukemia = tested on: SR leukemia
HCT-15 colon = tested on: HCT-15 colon

CN=c1ssc(=S)n1C(C)C
TGI (SF-268 CNS): > 100 µM | TGI (SW-620 colon): 20.6 µM | TGI (DMS 114 small cell lung): 20.3 µM | TGI (SK-MEL-2 melanoma): > 100 µM | TGI (IGROV1 ovarian): 46.4 µM | TGI (OVCAR-3 ovarian): 35 µM | TGI (TK-10 renal): > 100 µM | TGI (LXFL 529 NSCLC): 19.9 µM | TGI (UO-31 renal): > 100 µM | TGI (SNB-19 CNS): > 100 µM | TGI (HCC-2998 colon): 27.8 µM | TGI (SF-539 CNS): 86.6 µM | TGI (HT29 colon): 16.2 µM | TGI (NCI-H460 lung): > 100 µM | TGI (A549 NSCLC): > 100 µM | TGI (HOP-62 NSCLC): 43.7 µM | TGI (MOLT-4 leukemia): 51.7 µM | TGI (CCRF-CEM leukemia): 11.8 µM | TGI (M14 melanoma): 79 µM | TGI (KM12 colon): > 100 µM | TGI (NCI-H23 lung): 80.7 µM | TGI (RXF 393 renal): 22.4 µM | TGI (OVCAR-8 ovarian): > 100 µM | TGI (KM20L2 colon): 41.4 µM | TGI (NCI-H226 lung): > 100 µM | TGI (UACC-257 melanoma): 53.5 µM | TGI (CAKI-1 renal): 88.2 µM | TGI (HL-60(TB) leukemia): 14.7 µM | TGI (SNB-75 CNS): 52.3 µM | TGI (EKVX NSCLC): > 100 µM | TGI (M19-MEL melanoma): 28.6 µM | TGI (RPMI-8226 leukemia): 60.3 µM | TGI (COLO 205 colon): 39.4 µM | TGI (HOP-92 NSCLC): 67.1 µM | TGI (SF-295 CNS): > 100 µM | TGI (ACHN renal): 95.5 µM | TGI (UACC-62 melanoma): 31.1 µM | TGI (HCT-116 colon): > 100 µM | TGI (SK-MEL-5 melanoma): > 100 µM | TGI (SK-MEL-28 melanoma): 9.24 µM

CCCCCCCC(=O)OC[C@H](C[As](=O)(O)O)OC(=O)CCCCCCC
TGI (MALME-3M melanoma): 25.3 µM | TGI (SF-268 CNS): 15.6 µM | TGI (SW-620 colon): 20 µM | TGI (DMS 114 small cell lung): 19.5 µM | TGI (IGROV1 ovarian): 14.4 µM | TGI (OVCAR-4 ovarian): 29.1 µM | TGI (786-0 renal): 26.7 µM | TGI (DLD-1 colon): 28 µM | TGI (LXFL 529 NSCLC): 21.7 µM | TGI (UO-31 renal): 16.5 µM | TGI (A498 renal): 25.3 µM | TGI (SN12C renal): 21.7 µM | TGI (NCI-H522 lung): 4.07 µM | TGI (SNB-19 CNS): 27.3 µM | TGI (HCC-2998 colon): 27.8 µM | TGI (SF-539 CNS): 18.2 µM | TGI (HOP-18 NSCLC): 49.2 µM | TGI (HT29 colon): 25.2 µM | TGI (A549 NSCLC): 18.7 µM | TGI (SK-OV-3 ovarian): 29 µM | TGI (HOP-62 NSCLC): 33.1 µM | TGI (MOLT-4 leukemia): 14.1 µM | TGI (CCRF-CEM leukemia): 8.8 µM | TGI (M14 melanoma): 25.6 µM | TGI (NCI-H23 lung): 28.2 µM | TGI (K-562 leukemia): 41.6 µM | TGI (RXF 393 renal): 16 µM | TGI (OVCAR-8 ovarian): 32 µM | TGI (KM20L2 colon): 30.2 µM | TGI (DMS 273 small cell lung): 24 µM | TGI (NCI-H226 lung): 17.6 µM | TGI (UACC-257 melanoma): 27.2 µM | TGI (HL-60(TB) leukemia): 22 µM | TGI (SNB-75 CNS): 32.3 µM | TGI (EKVX NSCLC): 80.7 µM | TGI (M19-MEL melanoma): 27.2 µM | TGI (RPMI-8226 leukemia): 32.4 µM | TGI (COLO 205 colon): 30 µM | TGI (SNB-78 CNS): 44.3 µM | TGI (U251 CNS): 19.1 µM | TGI (HOP-92 NSCLC): 31.1 µM | TGI (SR leukemia): 22.8 µM | TGI (SF-295 CNS): 27.5 µM | TGI (ACHN renal): 23.1 µM | TGI (UACC-62 melanoma): 21.3 µM | TGI (HCT-116 colon): 19.2 µM | TGI (SK-MEL-5 melanoma): 26.8 µM | TGI (HCT-15 colon): 23.5 µM | TGI (SK-MEL-28 melanoma): 26.5 µM

Source: PubChem BioAssay (NCI)
